From PubChem BioAssay AID192 (DTP/NCI, 2004)
Where “and” joins values, the source holds several entries; their conditions need not be identical. Equal values may be shown once. Inconclusive results and toxic doses are left out.

System: BDF1 mice, B16 melanoma ip, median survival T/C
Assay: NCI In Vivo Anticancer Drug Screen. Data for tumor model B16 Melanoma (intraperitoneal) in B6D2F1 (BDF1) mice
Details: endpoint: median survival time, higher = longer survival
Procedure, shortened: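 Mice with transplantable tumors; drug vs vehicle groups; endpoint survival or tumor size; value = T/C.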

[1] = dose: 100.0 mg/kg/injection, schedule: Q01DX009 (ip), vehicle: saline with Tween-80
[2] = dose: 12.5 mg/kg/injection, schedule: Q01DX009 (ip), vehicle: saline with Tween-80
[3] = dose: 50.0 mg/kg/injection, schedule: Q01DX009 (ip), vehicle: saline
[4] = dose: 100.0 mg/kg/injection, schedule: Q01DX009 (ip), vehicle: saline
[5] = dose: 100.0 mg/kg/injection, schedule: Q01DX009 (ip), vehicle: Klucel (hydroxypropylcellulose) (HPC)
[6] = dose: 200.0 mg/kg/injection, schedule: Q01DX009 (ip), vehicle: Klucel (hydroxypropylcellulose) (HPC)
[7] = dose: 400.0 mg/kg/injection, schedule: Q01DX009 (ip), vehicle: Klucel (hydroxypropylcellulose) (HPC)
[8] = dose: 200.0 mg/kg/injection, schedule: Q01DX009 (ip), vehicle: saline with Tween-80
[9] = dose: 400.0 mg/kg/injection, schedule: Q01DX009 (ip), vehicle: saline with Tween-80
[10] = dose: 25.0 mg/kg/injection, schedule: Q01DX009 (ip), vehicle: saline with Tween-80
[11] = dose: 200.0 mg/kg/injection, schedule: Q01DX009 (ip), vehicle: saline

## CCOC(=O)CCC[P+](c1ccccc1)(c1ccccc1)c1ccccc1
dose: 5.0 mg/kg/injection, schedule: Q01DX009 (ip), vehicle: saline with Tween-80
  T/C: 117 % of control
dose: 20.0 mg/kg/injection, schedule: Q01DX009 (ip), vehicle: saline with Tween-80
  T/C: 117 % of control
dose: 40.0 mg/kg/injection, schedule: Q01DX009 (ip), vehicle: saline with Tween-80
  T/C: 121 % of control
dose: 66.0 mg/kg/injection, schedule: Q01DX009 (ip), vehicle: saline with Tween-80
  T/C: 116 % of control
dose: 80.0 mg/kg/injection, schedule: Q01DX009 (ip), vehicle: saline with Tween-80
  T/C: 113 % of control
[1]
  T/C: 100 % of control
dose: 140.0 mg/kg/injection, schedule: Q01DX009 (ip), vehicle: saline with Tween-80
  T/C: 112 % of control
dose: 160.0 mg/kg/injection, schedule: Q01DX009 (ip), vehicle: saline with Tween-80
  T/C: 116 % of control
dose: 210.0 mg/kg/injection, schedule: Q01DX009 (ip), vehicle: saline with Tween-80
  T/C: 104 % of control

## C1=Cc2ccccc2/C1=C/c1cccc(/C=C2\C=Cc3ccccc32)c1
dose: 6.25 mg/kg/injection, schedule: Q01DX009 (ip), vehicle: saline with Tween-80
  T/C: 100 % of control
[2]
  T/C: 86 % of control

## O=C(O)CC[S-].[Ag+]
dose: 25.0 mg/kg/injection, schedule: Q01DX009 (ip), vehicle: saline
  T/C: 99 % of control
[3]
  T/C: 111 % of control
[4]
  T/C: 97 % of control

## O=C(O)c1cccc2c(=O)c3ccccc3sc12
[5]
  T/C: 100 % of control
[6]
  T/C: 100 % of control
[7]
  T/C: 93 % of control

## Cc1cccc(C)c1NC(=O)C(C)C
[1]
  T/C: 100 % of control
[8]
  T/C: 102 % of control
[9]
  T/C: 95 % of control

## CC(C)CC(NC(=O)C(N)C(C)C)C(=O)NC(CCCCN)C(=O)Nc1ccc(N(CCCl)CCCl)cc1 (centres undefined)
dose: 0.74 mg/kg/injection, schedule: Q01DX009 (ip), vehicle: saline
  T/C: 105 % of control
dose: 1.49 mg/kg/injection, schedule: Q01DX009 (ip), vehicle: saline
  T/C: 109 % of control and 120 % of control
dose: 5.95 mg/kg/injection, schedule: Q01DX009 (ip), vehicle: saline
  T/C: 159 % of control and 182 % of control

## CC[C@@]1(O)C[C@H](OC2CC(N(C)C)C(OC3CC(O)C(OC4CC(O)C(O)C(C)O4)C(C)O3)C(C)O2)c2c(cc3c(c2O)C(=O)c2c(O)ccc(O)c2C3=O)[C@H]1C(=O)OC (some centres undefined)
dose: 0.03 mg/kg/injection, schedule: Q01DX001 (ip), vehicle: saline
  T/C: 105 % of control
dose: 0.05 mg/kg/injection, schedule: Q01DX001 (ip), vehicle: saline
  T/C: 118 % of control
dose: 0.1 mg/kg/injection, schedule: Q01DX001 (ip), vehicle: saline
  T/C: 119 % of control
dose: 0.25 mg/kg/injection, schedule: Q01DX009 (ip), vehicle: other
  T/C: 161 % of control
dose: 0.5 mg/kg/injection, schedule: Q01DX009 (ip), vehicle: other
  T/C: 161 % of control
dose: 0.8 mg/kg/injection, schedule: Q01DX001 (ip), vehicle: saline
  T/C: 163 % of control
dose: 1.0 mg/kg/injection, schedule: Q01DX009 (ip), vehicle: alcohol
  T/C: 210 % of control
dose: 1.0 mg/kg/injection, schedule: Q01DX009 (ip), vehicle: other
  T/C: 188 % of control
dose: 1.6 mg/kg/injection, schedule: Q01DX001 (ip), vehicle: saline
  T/C: 168 % of control
dose: 2.0 mg/kg/injection, schedule: Q01DX009 (ip), vehicle: alcohol
  T/C: 216 % of control
dose: 2.16 mg/kg/injection, schedule: Q01DX001 (ip), vehicle: water
  T/C: 106 % of control
dose: 3.6 mg/kg/injection, schedule: Q01DX001 (ip), vehicle: water
  T/C: 97 % of control
dose: 6.0 mg/kg/injection, schedule: Q01DX001 (ip), vehicle: water
  T/C: 100 % of control
dose: 10.0 mg/kg/injection, schedule: Q01DX001 (ip), vehicle: water
  T/C: 89 % of control

## COC(C(=O)C(O)C(C)O)C1CC2C=C3C=C(OC4CC(OC5CC(O)C(OC)C(C)O5)C(OC(C)=O)C(C)O4)C(C)C(=O)C3=C(O)C2=C(O)C1OC1CC(OC2CC(OC3CC(C)(O)C(O)C(C)O3)C(O)C(C)O2)C(O)C(C)O1 (centres undefined)
dose: 0.25 mg/kg/injection, schedule: Q01DX009 (ip), vehicle: saline with Tween-80
  T/C: 108 % of control
dose: 0.5 mg/kg/injection, schedule: Q01DX009 (ip), vehicle: saline with Tween-80
  T/C: 112 % of control
dose: 1.0 mg/kg/injection, schedule: Q01DX009 (ip), vehicle: saline with Tween-80
  T/C: 110 % of control and 116 % of control
dose: 2.6 mg/kg/injection, schedule: Q01DX009 (ip), vehicle: saline with Tween-80
  T/C: 157 % of control
dose: 4.0 mg/kg/injection, schedule: Q01DX009 (ip), vehicle: saline with Tween-80
  T/C: 154 % of control and 167 % of control
dose: 8.0 mg/kg/injection, schedule: Q01DX009 (ip), vehicle: saline with Tween-80
  T/C: 165 % of control

## Cc1ccc2c(ccc(/C=C/c3ccc(O)c4ncccc34)[n+]2C)c1
[2]
  T/C: 113 % of control
[10]
  T/C: 103 % of control

## COc1cccc2c1cc([N+](=O)[O-])c1c(C(=O)O)cc3c(c12)OCO3
dose: 2.5 mg/kg/injection, schedule: Q01DX009 (ip), vehicle: Klucel (hydroxypropylcellulose) (HPC)
  T/C: 106 % of control
dose: 5.0 mg/kg/injection, schedule: Q01DX009 (ip), vehicle: Klucel (hydroxypropylcellulose) (HPC)
  T/C: 111 % of control
dose: 10.0 mg/kg/injection, schedule: Q01DX009 (ip), vehicle: Klucel (hydroxypropylcellulose) (HPC)
  T/C: 94 % of control

## Cc1ccc(N2C(=O)CC(Sc3ccccc3N)C2=O)cc1 (centres undefined)
dose: 25.0 mg/kg/injection, schedule: Q01DX009 (ip), vehicle: Klucel (hydroxypropylcellulose) (HPC)
  T/C: 97 % of control
dose: 50.0 mg/kg/injection, schedule: Q01DX009 (ip), vehicle: Klucel (hydroxypropylcellulose) (HPC)
  T/C: 91 % of control
[5]
  T/C: 86 % of control and 91 % of control

## CO[C@H](C)[C@@](O)(C(=O)OCC1=CCN2CCC[C@@H]12)C(C)C
dose: 10.0 mg/kg/injection, schedule: Q01DX009 (ip), vehicle: saline
  T/C: 114 % of control
dose: 20.0 mg/kg/injection, schedule: Q01DX009 (ip), vehicle: saline
  T/C: 104 % of control
dose: 40.0 mg/kg/injection, schedule: Q01DX009 (ip), vehicle: saline
  T/C: 100 % of control
dose: 80.0 mg/kg/injection, schedule: Q01DX009 (ip), vehicle: saline
  T/C: 95 % of control

## NC(Cc1ccc(N(CCCl)CCCl)cc1)C(=O)O (centres undefined)
dose: 2.0 mg/kg/injection, schedule: Q01DX009 (ip), vehicle: saline
  T/C: 188 % of control
dose: 2.0 mg/kg/injection, schedule: Q01DX009 (ip), vehicle: water
  T/C: 118 % of control
dose: 4.0 mg/kg/injection, schedule: Q01DX009 (ip), vehicle: water
  T/C: 272 % of control
dose: 8.0 mg/kg/injection, schedule: Q01DX009 (ip), vehicle: water
  T/C: 172 % of control

## Cn1ccccc1=O
[3]
  T/C: 124 % of control
[4]
  T/C: 120 % of control
[11]
  T/C: 117 % of control

## CC(N)C(=O)NC(CO)C(=O)O (centres undefined)
[1]
  T/C: 109 % of control
[8]
  T/C: 97 % of control
[9]
  T/C: 97 % of control

## O=C1C=C(C2CCCCC2)C(=O)c2ccccc21
[2]
  T/C: 106 % of control
[10]
  T/C: 101 % of control
dose: 50.0 mg/kg/injection, schedule: Q01DX009 (ip), vehicle: saline with Tween-80
  T/C: 92 % of control
[1]
  T/C: 92 % of control

## CC(C)N(C(=O)Nc1ccccc1Cl)c1ccccc1
[5]
  T/C: 89 % of control
[6]
  T/C: 91 % of control
[7]
  T/C: 92 % of control

## Cc1c2cc[n+](C)c(C)c2cc2c1[nH]c1ccccc12
dose: 10.0 mg/kg/injection, schedule: Q04DX003 (ip), vehicle: water
  T/C: 95 % of control
dose: 20.0 mg/kg/injection, schedule: Q04DX003 (ip), vehicle: water
  T/C: 92 % of control
dose: 40.0 mg/kg/injection, schedule: Q04DX003 (ip), vehicle: water
  T/C: 94 % of control

## CCN1C=C/C(=C\C=C/c2cc[n+](CC)c3ccccc23)c2ccccc21
dose: 6.0 micrograms/kg/injection, schedule: Q01DX009 (ip), vehicle: saline
  T/C: 106 % of control
dose: 12.0 micrograms/kg/injection, schedule: Q01DX009 (ip), vehicle: saline
  T/C: 110 % of control
dose: 25.0 micrograms/kg/injection, schedule: Q01DX009 (ip), vehicle: saline
  T/C: 115 % of control
dose: 50.0 micrograms/kg/injection, schedule: Q01DX009 (ip), vehicle: saline
  T/C: 106 % of control

## CC(=O)Nc1ccc2c(c1)C[N+](C)(C1CCCCC1)CO2 (centres undefined)
[2]
  T/C: 106 % of control
[10]
  T/C: 113 % of control

## N=C(N)SCCCN
dose: 100.0 mg/kg/injection, schedule: Q04DX003 (ip), vehicle: saline
  T/C: 109 % of control
[11]
  T/C: 93 % of control
dose: 200.0 mg/kg/injection, schedule: Q04DX003 (ip), vehicle: saline
  T/C: 104 % of control
